# Reference: patent publication US20060052455A1, “Composition for preventing treating the xepression of clinical symptom in disease caused by mitochondrial dysfunction” (priority 2002, published 2006)
# Test system: MELAS patients
# Test: Intravenous drip infusion of L-arginine monohydrochloride to MELAS patients
# Type: in vivo, human
# Description: This treatment by intravenous injection is, however, not convenient for MELAS patients, because, in order to receive intravenous injection in the acute stage of cerebral apoplexy-like episode, they have to go to the hospital to receive such intravenous injection immediately after the episode has occurred. […] The scintillating scotoma refers to an abnormal visual field which is one of warning symptoms of a cerebral apoplexy-like episode, and when it occurs, a riffle-like light suddenly appears in a part of the visual field and usually lasts for 5 to 30 minutes. Moreover, administration of a large amount of L-arginine monohydrochloride into a blood vessel may presumably cause side effects such as drop in blood pressure, hydrochloric acidosis, or the like.
smiles,measurement,setting,value
Cl.N=C(N)NCCC[C@H](N)C(=O)O [L-arginine monohydrochloride],treatment of the acute stage of cerebral apoplexy-like episode due to MELAS,"intravenous drip infusion, three patients",effective
same,"improvement of warning symptoms of the episode, particularly scintillating scotoma",intravenous injection,cannot improve
